Assay results taken from US4087432A, “1H-imidazo(4,5-b)pyridine compounds” (Eli Lilly and Company, priority 1975, dated 1978).
“And” between values parts separate entries of the source, which are not always exact repeats. Identical values can stand only once.

How the values were obtained:
[1] = tested on: Corn; assay: General herbicidal effect alone/in combination, corn (second Corn column); assay type: in vivo; design: key: 0-10 scale: 0 = no injury, 10 = death; conditions: alone
Method: (§1) Various of the compounds to be employed as active agent in accordance with the present invention were evaluated for preemergent application to various species of plants. In this evaluation, a soil was prepared consisting of one part masonry sand and one part shredded top soil blended together in a cement mixer. One gallon of this soil was placed in a 25 × 35 cm. galvanized flat and was patted down with a bench brush until level. A three-row marker was used to make 21/2 cm. deep furrows in approximately two-fifths of the flat. Crop seeds consisting of four kernels of corn, five cotton seeds and five soybean seeds were placed in these furrows. A four-row template was then placed on the remaining soil and the indicated approximate numbers of each of the following seeds were planted, one species to each section: foxtail (millet), 80-100 seeds; velvetleaf (40-50 seeds); rough pigweed (150-250 seeds); and large crabgrass (100-150 seeds).
(§2) Sufficient soil was added to cover the entire flat. Thus, the weed seeds were covered to a depth of about 6 mm. and the crop seeds were covered to a depth of about 3 cm.
(§3) In assaying the effect of the composition as preemergent herbicides, a flat prepared as above, taken either on the day of planting or on the next day, was placed in a chamber equipped with a turntable and an air exhaust. The herbicidal composition, either a spray-type emulsion or a wettable powder, was applied to the flat with a modified DeVilbiss atomizer hooked to an air source. Twelve and one-half milliliters of the composition under test were applied to each flat either on the day of planting or the succeeding day. Injury ratings and observations as to type of injury were made eleven to twelve days after treatment. The injury rating scale used was as follows:
(§4) 4--death When more than one determination was carried out at a given rate, an average value was calculated for the injury rating. Each compound evaluated was formulated as a spray by one of the following procedures. In one method the particular compound was wetted by grinding in a mortar with one part of polyoxyethylene sorbitan monolaurate. Five hundred parts of water were added slowly to the resultant creamy paste to give an aqueous dispersion with a surfactant concentration of 0.2 percent. This dispersion was entirely satisfactory for spray application. In a second procedure the compound was dissolved in one volume of acetone, and the acetone solution was diluted with nineteen volumes of water containing 0.1 percent of polyoxyethylene sorbitan monolaurate.
(§5) 6-Chloro-1-hydroxy-2-(trifluoromethyl)-1H-imidazo(4,5-b)pyridine was evaluated in combination with 2-chloro-4-ethylamino-6-isopropylamino-s-triazine and separately in combination with 2-chloro-2',6'-diethyl-N-(methoxymethyl)acetanilide for the control of plants. The evaluations were conducted as described in Examples 49-52, except that the rates of compound differed and the species were different. General herbicidal effect was rated on a scale of 0-10, with 0 = no injury and 10 = death. Observations were also made for the following other specific phytotoxic effects.

[2] = tested on: Crabgrass; assay: Preemergent injury rating, crabgrass; assay type: in vivo, large crabgrass; design: key: injury rating scale on which 4 = death
Method: as §1, §2, §3, §4
(§6) In the following table setting forth the results of the evaluation, column 1 gives the name of the compound under test; column 2, the rate in pounds per acre at which the compound was applied to the test flat; and the remaining columns, the injury to the particular plant seeds or seedlings as measured by the foregoing scale.

[3] = tested on: Barnyard Grass; assay: General herbicidal effect alone/in combination, barnyard grass; assay type: in vivo; design: key: 0-10 scale: 0 = no injury, 10 = death; conditions: alone
Method: as §1, §2, §3, §4, §5

[4] = tested on: Foxtail Millet; assay: General herbicidal effect alone/in combination, foxtail millet; assay type: in vivo; design: key: 0-10 scale: 0 = no injury, 10 = death; conditions: alone
Method: as §1, §2, §3, §4, §5

[5] = tested on: Large Crabgrass; assay: General herbicidal effect alone/in combination, large crabgrass; assay type: in vivo; design: key: 0-10 scale: 0 = no injury, 10 = death; conditions: alone, 1.0 lbs/A; listed as A
Method: as §1, §2, §3, §4, §5

[6] = tested on: Sorghum; assay: General herbicidal effect alone/in combination, sorghum; assay type: in vivo; design: key: 0-10 scale: 0 = no injury, 10 = death; conditions: alone
Method: as §1, §2, §3, §4, §5

[7] = tested on: Velvet Leaf; assay: Preemergent injury rating, velvetleaf; assay type: in vivo; design: key: injury rating scale on which 4 = death
Method: as §1, §2, §3, §4, §6

[8] = tested on: Lambs Quarter; assay: General herbicidal effect alone/in combination, lambsquarter; assay type: in vivo; design: key: 0-10 scale: 0 = no injury, 10 = death; conditions: alone, listed as A
Method: as §1, §2, §3, §4, §5

[9] = tested on: Corn; assay: Preemergent injury rating, corn; assay type: in vivo; design: key: injury rating scale on which 4 = death
Method: as §1, §2, §3, §4, §6

[10] = tested on: Foxtail; assay: Preemergent injury rating, foxtail; assay type: in vivo, foxtail (millet); design: key: injury rating scale on which 4 = death
Method: as §1, §2, §3, §4, §6

[11] = tested on: Jimsonweed; assay: General herbicidal effect alone/in combination, jimsonweed; assay type: in vivo; design: key: 0-10 scale: 0 = no injury, 10 = death; conditions: alone
Method: as §1, §2, §3, §4, §5

[12] = tested on: Soybean; assay: Preemergent injury rating, soybean; assay type: in vivo; design: key: injury rating scale on which 4 = death
Method: as §1, §2, §3, §4, §6

[13] = tested on: Corn; assay: General herbicidal effect alone/in combination, corn (first Corn column); assay type: in vivo; design: key: 0-10 scale: 0 = no injury, 10 = death; conditions: alone
Method: as §1, §2, §3, §4, §5

[14] = tested on: Velvet Leaf; assay: General herbicidal effect alone/in combination, velvetleaf; assay type: in vivo; design: key: 0-10 scale: 0 = no injury, 10 = death; conditions: alone
Method: as §1, §2, §3, §4, §5

[15] = tested on: Pigweed; assay: Preemergent injury rating, pigweed; assay type: in vivo, rough pigweed; design: key: injury rating scale on which 4 = death
Method: as §1, §2, §3, §4, §6

[16] = tested on: Cotton; assay: Preemergent injury rating, cotton; assay type: in vivo; design: key: injury rating scale on which 4 = death
Method: as §1, §2, §3, §4, §6

[17] = tested on: Ragweed; assay: General herbicidal effect alone/in combination, ragweed; assay type: in vivo; design: key: 0-10 scale: 0 = no injury, 10 = death; conditions: alone
Method: as §1, §2, §3, §4, §5

[18] = tested on: Morning glory; assay: General herbicidal effect alone/in combination, morning glory; assay type: in vivo; design: key: 0-10 scale: 0 = no injury, 10 = death; conditions: alone
Method: as §1, §2, §3, §4, §5

[19] = tested on: Rice; assay: General herbicidal effect alone/in combination, rice; assay type: in vivo; design: key: 0-10 scale: 0 = no injury, 10 = death; conditions: alone
Method: as §1, §2, §3, §4, §5

[20] = tested on: Pigweed; assay: General herbicidal effect alone/in combination, pigweed; assay type: in vivo; design: key: 0-10 scale: 0 = no injury, 10 = death; conditions: alone
Method: as §1, §2, §3, §4, §5

On1c(C(F)(F)F)nc2ncc(Cl)cc21 [6-chloro-1-hydroxy-2-(trifluoromethyl)-1H-imidazo(4,5-b)pyridine]
herbicidal effect, Corn ([1]; 0.25 lbs/A): 0 | herbicidal effect, Corn ([1]; 0.5 lbs/A): 0 | herbicidal effect, Corn ([1]; 1.0 lbs/A): 0 | Injury Rating, Crabgrass ([2]; 1 lbs/acre): 4 | Injury Rating, Crabgrass ([2]; 2 lbs/acre): 3 | Injury Rating, Crabgrass ([2]; 4 lbs/acre): 4 | Injury Rating, Crabgrass ([2]; 8 lbs/acre): 4 | herbicidal effect, Barnyard Grass ([3]; 0.25 lbs/A): 0 | herbicidal effect, Barnyard Grass ([3]; 1.0 lbs/A, listed as A): 3S and 2S | herbicidal effect, Barnyard Grass ([3]; 2.0 lbs/A): 9BS | herbicidal effect, Foxtail Millet ([4]; 0.25 lbs/A): 0 | herbicidal effect, Foxtail Millet ([4]; 0.5 lbs/A): 2S | herbicidal effect, Foxtail Millet ([4]; 2.0 lbs/A): 10D | herbicidal effect, Large Crabgrass [5]: 3S and 2S | herbicidal effect, Sorghum ([6]; 0.25 lbs/A): 0 | herbicidal effect, Sorghum ([6]; 1.0 lbs/A): 8BS | herbicidal effect, Sorghum ([6]; 2.0 lbs/A): 10D | Injury Rating, Velvet Leaf ([7]; 1 lbs/acre): 2 | Injury Rating, Velvet Leaf ([7]; 2 lbs/acre): 4 | Injury Rating, Velvet Leaf ([7]; 4 lbs/acre): 4 | Injury Rating, Velvet Leaf ([7]; 8 lbs/acre): 3 | herbicidal effect, Lambs Quarter ([8]; 1.0 lbs/A): 9SB and 6SB | herbicidal effect, Lambs Quarter ([8]; 2.0 lbs/A): 9BS and 8BS | Injury Rating, Corn ([9]; 1 lbs/acre): 0 | Injury Rating, Corn ([9]; 2 lbs/acre): 0 | Injury Rating, Corn ([9]; 4 lbs/acre): 1 | Injury Rating, Corn ([9]; 8 lbs/acre): 1 | Injury Rating, Foxtail ([10]; 1 lbs/acre): 3 | Injury Rating, Foxtail ([10]; 2 lbs/acre): 3 | Injury Rating, Foxtail ([10]; 4 lbs/acre): 3 | Injury Rating, Foxtail ([10]; 8 lbs/acre): 3 | herbicidal effect, Jimsonweed ([11]; 0.25 lbs/A, listed as A): 4B and 2B | herbicidal effect, Jimsonweed ([11]; 0.5 lbs/A, listed as A): 8BS and 5BS | herbicidal effect, Jimsonweed ([11]; 1.0 lbs/A): 9BS | herbicidal effect, Jimsonweed ([11]; 2.0 lbs/A): 9BS | Injury Rating, Soybean ([12]; 1 lbs/acre): 0 | Injury Rating, Soybean ([12]; 2 lbs/acre): 0 | Injury Rating, Soybean ([12]; 4 lbs/acre): 0 | Injury Rating, Soybean ([12]; 8 lbs/acre): 1 | herbicidal effect, Corn ([13]; 0.25 lbs/A): 0 | herbicidal effect, Corn ([13]; 0.5 lbs/A): 0 | herbicidal effect, Corn ([13]; 1.0 lbs/A): 0 | herbicidal effect, Velvet leaf ([14]; 0.25 lbs/A): 0 | herbicidal effect, Velvet leaf ([14]; 0.5 lbs/A, listed as A): 2S and 3S | Injury Rating, Pigweed ([15]; 1 lbs/acre): 4 | Injury Rating, Pigweed ([15]; 2 lbs/acre): 4 | Injury Rating, Pigweed ([15]; 4 lbs/acre): 4 | Injury Rating, Pigweed ([15]; 8 lbs/acre): 4 | Injury Rating, Cotton ([16]; 1 lbs/acre): 0 | Injury Rating, Cotton ([16]; 2 lbs/acre): 0 | Injury Rating, Cotton ([16]; 4 lbs/acre): 0 | Injury Rating, Cotton ([16]; 8 lbs/acre): 2 | herbicidal effect, Ragweed ([17]; 0.25 lbs/A, listed as A): 2S and 3S | herbicidal effect, Ragweed ([17]; 1.0 lbs/A): 8BS | herbicidal effect, Morning glory ([18]; 0.5 lbs/A): 10D | herbicidal effect, Morning glory ([18]; 2.0 lbs/A): 10D | herbicidal effect, Rice ([19]; 0.25 lbs/A): 0 | herbicidal effect, Rice ([19]; 0.5 lbs/A): 3B | herbicidal effect, Pigweed ([20]; 0.25 lbs/A): 0 | herbicidal effect, Pigweed ([20]; 0.5 lbs/A, listed as A): 2S and 3S

On1c(C(F)(F)C(F)F)nc2nc(Cl)c(Cl)cc21 [1-hydroxy-5,6-dichloro-2-(1,1,2,2-tetrafluoroethyl)-1H-imidazo(4,5-b)pyridine]
Injury Rating, Crabgrass ([2]; 1 lbs/acre): 0 | Injury Rating, Crabgrass ([2]; 2 lbs/acre): 1BS | Injury Rating, Crabgrass ([2]; 4 lbs/acre): 2BS | Injury Rating, Crabgrass ([2]; 8 lbs/acre): 2B | Injury Rating, Velvet Leaf ([7]; 1 lbs/acre): 0 | Injury Rating, Velvet Leaf ([7]; 2 lbs/acre): 1B | Injury Rating, Velvet Leaf ([7]; 4 lbs/acre): 1B | Injury Rating, Velvet Leaf ([7]; 8 lbs/acre): 3B | Injury Rating, Corn ([9]; 1 lbs/acre): 0 | Injury Rating, Corn ([9]; 2 lbs/acre): 0 | Injury Rating, Corn ([9]; 4 lbs/acre): 0 | Injury Rating, Corn ([9]; 8 lbs/acre): 0 | Injury Rating, Foxtail ([10]; 1 lbs/acre): 0 | Injury Rating, Foxtail ([10]; 2 lbs/acre): 0 | Injury Rating, Foxtail ([10]; 4 lbs/acre): 1BS | Injury Rating, Foxtail ([10]; 8 lbs/acre): 1S | Injury Rating, Soybean ([12]; 1 lbs/acre): 0 | Injury Rating, Soybean ([12]; 2 lbs/acre): 0 | Injury Rating, Soybean ([12]; 4 lbs/acre): 1B | Injury Rating, Pigweed ([15]; 1 lbs/acre): 1S | Injury Rating, Pigweed ([15]; 2 lbs/acre): 3BS | Injury Rating, Pigweed ([15]; 4 lbs/acre): 3BS | Injury Rating, Pigweed ([15]; 8 lbs/acre): 3BS | Injury Rating, Cotton ([16]; 1 lbs/acre): 0 | Injury Rating, Cotton ([16]; 2 lbs/acre): 0 | Injury Rating, Cotton ([16]; 4 lbs/acre): 0
